Experimental data taken from patent US20260258077A1, “PROTEIN FOLDING AGENT, COMPOUND, PROTEIN FOLDING METHOD, PHARMACEUTICAL COMPOSITION, AND AGENT FOR SUPPRESSING CYTOTOXICITY BY TRANSITION METAL” (National University Corporation Tokyo University of …, priority 2023, published 2026).

How the values were obtained:
[1] = test system: HeLa cells; test: Suppressive effect on cytotoxicity of Cu(II) ions (Cell Counting Kit-8); type: cell-based; conditions: 100 μM Cu(II); single oxidized agent added four hours later; read 24 hours after CuCl2 (FIG. 15)
Method: HeLa cells were seeded in a 96-well plate at 5,000 cells/well and cultured at 37° C. in a 5% CO2 environment for 24 hours. Subsequently, a CuCl2 aqueous solution was added thereto to obtain 100 μM Cu(II). Four hours later, a mixed solution (10:1) of a certain amount of the compound (A-1-1-1) and the compound (B-1-1-1), or a mixed solution (10:1) of oxidized glutathione (GSSG) and reduced glutathione (GSH) was added. 24 hours after the addition of CuCl2, a Cell Counting Kit-8 solution was added thereto. Two hours later, an absorbance at 450 nm was measured to estimate the cell viability.
HeLa cells were seeded in a 96-well plate at 5,000 cells/well and cultured at 37° C. in a 5% CO2 environment for 24 hours. Subsequently, a CuCl2 aqueous solution was added thereto to obtain 100 μM Cu(II). Four hours later, a certain amount of the compound (B-1-1-1) solution or oxidized glutathione (GSSG) solution was added thereto. 24 hours after the addition of CuCl2, a Cell Counting Kit-8 solution was added thereto. Two hours later, the absorbance at 450 nm was measured to estimate the cell viability.

[2] = target: T1, reduced and denatured Bovine Pancreatic Trypsin Inhibitor (BPTI) (Bos taurus, UniProt P00974); test: Protein folding test of reduced and denatured BPTI (reverse-phase HPLC); type: biochemical; conditions: for formation proportion of native structural BPTI in the presence of Zn(II) ions: 90 μM Zn(II) (ZnSO4), 90 μM (B-1-2-1) or 900 μM GSSG alone, 1 hour (FIG. 25)
T1 construct: purchased Pro-Spec-Tany TechnoGene Ltd. (Rehovot, Israel)
Method: Bovine Pancreatic Trypsin Inhibitor (BPTI) having three disulfide bonds in the molecule was used as a model protein for analyzing a folding process.
BPTI (10 mg) was dissolved in 0.1 M Tris-HCl (pH: 8.0, 1.0 mL) containing 30 mM 1,4-dithiothreitol and 8 M urea, incubated at 50° C. for 3 hours, and purified by reverse-phase HPLC. HPLC purification was carried out using a PU-4180 pump and a UV-4075 detector manufactured by JASCO Corporation (Tokyo, Japan), and an InertSustain C18 column (4.6 mm×250 mm) manufactured by GL Sciences Inc. (Tokyo, Japan) at a flow rate of 1.0 mL·min^−1. The collected fractions were freeze-dried, and the obtained powder was stored at −30° C.
For analysis of the folding process by reverse-phase HPLC, Primaide HPLC system manufactured by Hitachi High-Tech Corporation (Tokyo, Japan) and TSKgel Protein C4-300 column (§ 4.6×150 mm) manufactured by Tosoh Corporation (Tokyo, Japan) were used. […]
In the presence of 200 μM of the compound (B-1-1-1) and 1.0 mM of the compound (A-1-1-1), reduced and denatured BPTI (30 μM) was dissolved in a Tris-HCl buffer (50 mM Tris-HCl, 300 mM NaCl, pH: 7.5) and incubated at 30° C. Reaction solutions (200 μL) collected at 0 minutes, 1 minute, 5 minutes, 10 minutes, 30 minutes, and 60 minutes after the start of the reaction were mixed with an equivalent amount of 1 M hydrochloric acid, and analyzed by reverse-phase HPLC. Tracing was performed at a flow rate of 1.0 mL·min^−1 and a wavelength of 229 nm, and a linear gradient was applied to the elution solvent ratio during measurement (solvent A: water containing 0.05% TFA, solvent B: acetonitrile containing 0.05% TFA; the amount of solvent A: 95% at 0 minutes, 80% at 15 minutes, 65% at 45 minutes). […]
In the presence of 200 μM oxidized glutathione (GSSG) and 1.0 mM reduced glutathione (GSH), or in the presence of 200 μM of the compound (B-1-1-1) and 1.0 mM of the compound (A-1-1-1), ZnSO4 and reduced and denatured BPTI (30 μM) were dissolved in a Tris-HCl buffer (50 mM Tris-HCl, 300 mM NaCl, pH: 7.5) and incubated at 30° C. The reaction solution (200 μL) 1 hour after the start of the reaction was mixed with an equivalent amount of 1 M hydrochloric acid and analyzed by reverse-phase HPLC. Tracing was performed at a flow rate of 1.0 mL·min^−1 and a wavelength of 229 nm, and a linear gradient was applied to the elution solvent ratio during measurement (solvent A: water containing 0.05% TFA, solvent B: acetonitrile containing 0.05% TFA; the amount of solvent A: 95% at 0 minutes, 80% at 15 minutes, 65% at 45 minutes).
In the presence of 90 μM of the compound (B-1-2-1) and 900 μM of the compound (A-1-2-1), or in the presence of 90 μM of oxidized glutathione […] and 900 μM of reduced glutathione […], reduced and denatured BPTI (30 μM) was dissolved in a Tris-HCl buffer (50 mM Tris-HCl, 300 mM NaCl, pH: 7.5) and incubated at 30° C. The reaction solution (200 μL) 1 hour after the start of the reaction was mixed with an equivalent amount of 1 M hydrochloric acid and analyzed by reverse-phase HPLC. Tracing was performed at a flow rate of 1.0 mL·min^−1 and a wavelength of 229 nm, and a linear gradient was applied to the elution solvent ratio during measurement (solvent A: water containing 0.05% TFA, solvent B: acetonitrile containing 0.05% TFA; the amount of solvent A: 95% at 0 minutes, 80% at 15 minutes, 65% at 45 minutes).
In the presence of 90 μM of the compound (B-1-2-1), 90 μM of Zn(II) ion (ZnSO4) and reduced and denatured BPTI (30 μM) were dissolved in a Tris-HCl buffer (50 mM Tris-HCl, 300 mM NaCl, pH: 7.5) and incubated at 30° C. The reaction solution (200 μL) 1 hour after the start of the reaction was mixed with an equivalent amount of 1 M hydrochloric acid and analyzed by reverse-phase HPLC. […]

In the case of C1CNCCNCCCN(CCSSCCN2CCCNCCNCCCNCC2)CCNC1 [compound (B-1-1-1)], the “improvement of cell viability of HeLa cells exposed to Cu(II) ions” value [1] is reported as “greatly improved the viability of HeLa cells”.

C1CNCCN(CCSSCCN2CCNCCNCC2)CCN1 [compound (B-1-2-1)] was tested, and the “formation of native structural BPTI in the absence of Zn(II) ions” value ([2]; 90 μM (B-1-2-1) alone, Zn(II) 0 μM, 1 hour (FIG. 23)) was “native structural BPTI was formed even at a Zn(II) ion concentration of 0 μM”, the “formation proportion of native structural BPTI with increasing Zn(II) ion concentration” value ([2]; 90 μM (B-1-2-1) alone, ZnSO4, 1 hour, 30° C. (FIG. 23)) was “formation proportion of native structural BPTI increased as the Zn(II) ion concentration increased” and the “formation proportion of native structural BPTI in the presence of Zn(II) ions” value [2] was “formation proportion of native structural BPTI was larger in the presence of Zn(II) ions than in the absence of Zn(II) ions”.

C1CN2CCSSCCN(CCN1)CC2 [compound (B-2-1-1)] was tested, and the “protein folding promotion effect of a catalytic amount” value ([2]; 6 μM (B-2-1-1), NiCl2 0 μM, BPTI 30 μM (FIG. 31)) was “had the protein folding promotion effect”, the “protein folding promotion effect of a catalytic amount in the presence of Ni(II) ions” value ([2]; 6 μM (B-2-1-1), NiCl2 1 μM, BPTI 30 μM (FIG. 32)) was “significantly improved as compared with the absence of Ni(II) ions” and the “protein folding promotion effect of a catalytic amount in the presence of Cu(II) ions” value ([2]; 30 μM (B-2-1-1), CuCl2 5 μM, BPTI 30 μM (FIG. 33)) was “significantly improved as compared with the absence of Cu(II) ions”. The “formation proportion of native structural BPTI with increasing Cu(II) ion concentration” value ([2]; 90 μM (B-2-1-1), CuCl2, 1 hour (FIG. 29)) was “formation proportion of native structural BPTI increased as the Cu(II) ion concentration increased”, the “formation proportion of native structural BPTI with increasing Ni(II) ion concentration” value ([2]; 90 μM (B-2-1-1), NiCl2, 1 hour (FIG. 30)) was “formation proportion of native structural BPTI increased as the Ni(II) ion concentration increased” and the “folding versus theoretical yield of a stoichiometric reaction” value ([2]; catalytic amount of (B-2-1-1), presence of Ni(II) ions or Cu(II) ions) was “enhancement of folding that greatly exceeded the theoretical yield expected for a stoichiometric reaction”. The “protein folding promotion effect” value ([2]; no metal ion, 90 μM agent, 1 hour, 30° C. (FIG. 28)) was “protein folding promotion effect comparable to that of GSSG”.

“oxidized glutathione [GSSG, reference compound]” was tested, and the “formation proportion of native structural BPTI in the presence of Zn(II) ions” value [2] was “proteins aggregated and folding hardly proceeded” and the “improvement of cell viability of HeLa cells exposed to Cu(II) ions” value [1] was “had little effect on improving the cell viability of HeLa cells”.
